Here are results for three compounds from ChEMBL document CHEMBL3102707, “Synthesis and structure-activity relationship of 2-adamantylmethyl tetrazoles as potent and selective inhibitors of human 11β-hydroxysteroid dehydrogenase type 1 (11β-HSD1)” (Bioorg Med Chem Lett, 2014).

A short description of data set [1]: Aqueous solubility of the compound. Format: physicochemical. Conditions: buffer.
Data set [2] is described as follows: Drug level in mouse liver at 10 mg/kg, po after 3 hrs. It counts as ADME, organism-based. Conditions: read-out: Drug uptake. On the set-up: dose 10 mg/kg, route oral.
Data set [3] is described as follows: Plasma concentration in mouse at 10 mg/kg, po after 3 hrs. It counts as ADME, organism-based. On the set-up: dose 10 mg/kg, route oral.
A short description of data set [4]: Drug level in mouse adipose tissue at 10 mg/kg, po after 3 hrs. As to conditions: read-out: Drug uptake. On the set-up: dose 10 mg/kg, route oral. It counts as ADME, organism-based.

Regarding `c1ccc(-c2ccc(C3(Cc4nnn[nH]4)C4CC5CC(C4)CC3C5)cc2)cc1` (configuration not stated), in data set [1], the solubility result is recorded as “soluble”.

With `OC1C2CC3CC1CC(C2)C3(Cc1nnn[nH]1)c1ccc(-c2ccc(F)cc2)cc1` (single isomer, unassigned; enantiomer 1), the concentration at 3 h was 13900 nM in data set [2], 1560 nM in data set [3] and 160 nM in data set [4].

`N#Cc1ccc(-c2ccc(C3(Cc4nnn[nH]4)C4CC5CC3CC(C4)C5O)cc2)cc1` (racemic): the concentration at 3 h in data set [2] was 23700 nM; in data set [3], 820 nM; in data set [4] it was below 75 nM.
